Key:
RBP4 = RBP4 (Homo sapiens (Human), UniProt P02753); assay: Scintillation proximity RBP4 binding assay (SPA); conditions: 10 nM 3H-Retinol, 50 nM biotinylated RBP4
Procedure: Scintillation Proximity RBP4 Binding Assay
Untagged human RBP4 purified from urine of tubular proteinuria patients was purchased from Fitzgerald Industries International. It was biotinylated using the EZ-Link Sulfo-NHS-LC-Biotinylation kit from Pierce following the manufacturer's recommendations. Binding experiments were performed in 96-well plates (OptiPlate, PerkinElmer) in a final assay volume of 100 μl per well in SPA buffer (1×PBS, pH 7.4, 1 mM EDTA, 0.1% BSA, 0.5% CHAPS). The reaction mix contained 10 nM ^3H-Retinol (48.7 Ci/mmol; PerkinElmer), 0.3 mg/well Streptavidin-PVT beads, 50 nM biotinylated RBP4 and a test compound. Nonspecific binding was determined in the presence of 20 μM of unlabeled retinol.
The reaction mix was assembled in the dark under dim red light. The plates were sealed with clear tape (TopSeal-A: 96-well microplate, PerkinElmer), wrapped in the aluminum foil, and allowed to equilibrate 6 hours at room temperature followed by overnight incubation at +4° C. Radiocounts were measured using a TopCount NXT counter (Packard Instrument Company).

RBP4-TTR interaction = RBP4-TTR interaction (Homo sapiens (Human), UniProt P02753); assay: TR-FRET (HTRF) assay for retinol-induced RBP4-TTR interaction; assay type: biochemical; conditions: in the presence of 1 μM retinol; read-out: HTRF assay for antagonists of RBP4-TTR interaction: IC50
Text: TR-FRET Assay for Retinol-Induced RBP4-TTR Interaction
Binding of a desired RBP4 antagonist displaces retinol and induces hindrance for RBP4-TTR interaction resulting in the decreased FRET signal (FIG. 7). Bacterially expressed MBP-RBP4 and untagged TTR were used in this assay. […] Following cell lysis, recombinant RBP4 was purified from the soluble fraction using the ACTA FPLC system (GE Healthcare) equipped with the 5-ml the MBP Trap HP column. Human untagged TTR was purchased from Calbiochem. Untagged TTR was labeled directly with Eu^3+ Cryptate-NHS using the HTRF Cryptate Labeling kit from CisBio following the manufacturer's recommendations. HTRF assay was performed in white low volume 384 well plates (Greiner-Bio) in a final assay volume of 16 μl per well. The reaction buffer contained 10 mM Tris-HCl pH 7.5, 1 mM DTT, 0.05% NP-40, 0.05% Prionex, 6% glycerol, and 400 mM KF. […] Titration of test compounds in this assay was conducted in the presence of 1 μM retinol. All reactions were assembled in the dark under dim red light and incubated overnight at +4° C. wrapped in aluminum foil. TR-FRET signal was measured in the SpectraMax M5e Multimode Plate Reader (Molecular Device). […] The TR-FRET signal was expressed as the ratio of fluorescence intensity: Flu665/Flu620×10,000.

Work on `COC(=O)N1CCc2[nH]nc(C(=O)N3CCC(c4cccc(F)c4C(F)(F)F)CC3)c2C1` [Compound 68] yielded an IC50 (RBP4) of under 1.37 nM and an IC50 (RBP4-TTR interaction) of 36.2 nM.

Reference: patent publication US10407433B2, “Substituted 4-phenylpiperidines, their preparation and use” (The Trustees of Columbia University in the City of New York, priority 2014, dated 2019)
